In patent publication US20240270821A1, “GIP/GLP1/GCG TRI-RECEPTOR AGONISTS AND USES THEREOF” (priority 2023, published 2024):
Where two headings read alike, the source gives them in different places. Starred links: 1 amine or outer side, 2 acyl side, 3 side chain; linkers in the order of their positions; H or OH if unused. Non-standard residues stand in square brackets, D forms with d. Groups on a side chain read outwards from the residue. *: point of attachment. C20 diacid = O=C(O)CCCCCCCCCCCCCCCCCCC(=O)*; C18 diacid = O=C(O)CCCCCCCCCCCCCCCCC(=O)*; γGlu = O=C(O)[C@H](CCC(=O)[*:2])N[*:1]; 4Pal = N[C@@H](Cc1ccncc1)C(=O)O; αMeL = CC(C)C[C@](C)(N)C(=O)O; Orn = NCCC[C@H](N)C(=O)O; AEEA = NCCOCCOCC(=O)O; Aib = CC(C)(N)C(=O)O

Assays:
Type in all cases: cell-based
hGLP-1R [1] = molecular target: T1, hGLP-1R (Homo sapiens, UniProt P43220); assay: Functional cAMP activation in the presence of 0.1% casein (no HSA);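 also: intracellular cAMP rise after 30 min at 37 °C read by HTRF, normalized between buffer only (0%) and maximal control ligand (100%), four-parameter variable-slope fit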
human GcgR = human GcgR (Homo sapiens, UniProt P47871); assay: Functional cAMP activity in the presence of 1% HSA
hGLP-1R [2] = molecular target: T1, hGLP-1R; assay: Functional cAMP activity in the presence of 1% HSA
hGIPR [3] = molecular target: T2, hGIPR (Homo sapiens, UniProt P48546); assay: Functional cAMP activation in the presence of 0.1% casein (no HSA);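 also: intracellular cAMP rise after 30 min at 37 °C read by HTRF against a standard curve, scaled between buffer alone (0%) and top control ligand concentration (100%), four-parameter fit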
T2 sequence (P48546 22-466): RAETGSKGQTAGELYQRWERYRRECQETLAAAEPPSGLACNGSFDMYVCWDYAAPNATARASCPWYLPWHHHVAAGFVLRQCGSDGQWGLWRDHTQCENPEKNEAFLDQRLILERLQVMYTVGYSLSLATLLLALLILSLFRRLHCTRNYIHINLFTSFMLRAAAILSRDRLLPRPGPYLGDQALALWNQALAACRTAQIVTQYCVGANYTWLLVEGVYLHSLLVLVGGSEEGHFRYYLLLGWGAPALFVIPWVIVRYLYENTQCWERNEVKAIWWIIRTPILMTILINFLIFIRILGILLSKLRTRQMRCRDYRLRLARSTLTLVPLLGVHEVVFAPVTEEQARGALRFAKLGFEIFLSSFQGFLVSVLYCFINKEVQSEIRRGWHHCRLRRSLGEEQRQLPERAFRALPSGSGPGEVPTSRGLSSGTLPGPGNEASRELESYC

hGcgR = hGcgR (Homo sapiens, UniProt P47871); assay: as above;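 also: intracellular cAMP rise after 30 min at 37 °C, read by HTRF against a cAMP standard curve, scaled from buffer only (0%) to maximal control ligand response (100%)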
hGIPR [4] = molecular target: T2, hGIPR; assay: Functional cAMP activity in the presence of 1% HSA
human GLP1-R = human GLP1-R (Homo sapiens, UniProt P43220); assay: GLP1-R internalization assay in HEK293 cells; conditions: for Internalization % TOP: normalized to maximum concentration of GLP-1 (100%)
[5] = in the presence of 0.1% casein (no HSA), geometric mean, read-out: Relative cAMP EC50, hGLP-1R
[6] = read-out: cAMP Rel EC50, hGLP-1R
[7] = in the presence of 0.1% casein (no HSA), geometric mean, read-out: Relative cAMP EC50, hGIPR
[8] = in the presence of 0.1% casein (no HSA), geometric mean, read-out: Relative cAMP EC50, hGcgR
[9] = HEK293 cells expressing SNAP-GLP-1R, read-out: GLP1R Internalization EC50

Chain of human GcgR (P47871 26-477): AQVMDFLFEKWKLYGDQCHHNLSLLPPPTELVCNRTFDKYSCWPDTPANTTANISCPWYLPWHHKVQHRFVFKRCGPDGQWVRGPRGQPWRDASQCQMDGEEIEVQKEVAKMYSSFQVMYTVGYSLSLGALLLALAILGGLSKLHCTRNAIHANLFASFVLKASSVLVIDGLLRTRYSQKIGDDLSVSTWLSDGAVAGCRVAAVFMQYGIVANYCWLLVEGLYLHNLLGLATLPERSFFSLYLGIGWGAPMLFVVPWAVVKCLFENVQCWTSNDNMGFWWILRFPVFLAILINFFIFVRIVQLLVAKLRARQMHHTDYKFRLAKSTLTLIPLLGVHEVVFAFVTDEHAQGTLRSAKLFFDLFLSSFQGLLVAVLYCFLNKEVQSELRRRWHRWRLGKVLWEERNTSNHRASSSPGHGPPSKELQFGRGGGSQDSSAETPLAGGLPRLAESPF
Chain of hGcgR (P47871 26-477): as above
T1 sequence (P43220 24-463): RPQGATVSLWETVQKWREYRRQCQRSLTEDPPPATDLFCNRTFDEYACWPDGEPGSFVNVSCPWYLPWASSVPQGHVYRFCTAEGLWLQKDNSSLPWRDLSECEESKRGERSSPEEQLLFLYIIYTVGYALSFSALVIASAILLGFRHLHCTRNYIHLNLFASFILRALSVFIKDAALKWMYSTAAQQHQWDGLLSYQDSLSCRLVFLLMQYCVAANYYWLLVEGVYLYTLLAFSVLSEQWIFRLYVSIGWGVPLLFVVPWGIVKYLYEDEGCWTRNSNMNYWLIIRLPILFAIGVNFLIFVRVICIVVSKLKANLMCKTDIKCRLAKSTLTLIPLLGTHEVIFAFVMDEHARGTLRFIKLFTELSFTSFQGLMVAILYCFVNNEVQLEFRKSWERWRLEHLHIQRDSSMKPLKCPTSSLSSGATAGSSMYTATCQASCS
Chain of human GLP1-R (P43220 24-463): as above

Substance | EC50 (hGLP-1R [1]; [5]) [nM] | EC50 (human GcgR; read-out: cAMP Rel EC50, hGcgR) [nM] | EC50 (hGLP-1R [2]; [6]) [nM] | EC50 (hGIPR [3]; [7]) [nM] | EC50 (hGcgR; [8]) [nM] | EC50 (hGIPR [4]; read-out: cAMP Rel EC50, hGIPR) [nM] | EC50 (human GLP1-R; [9]) [nM] | Internalization % TOP (human GLP1-R) [%] | EC50 (hGLP-1R [1]) [nM] | EC50 (human GcgR) [nM] | EC50 (hGLP-1R [2]) [nM] | EC50 (hGIPR [3]) [nM] | EC50 (hGcgR) [nM] | EC50 (hGIPR [4]) [nM] | EC50 (human GLP1-R) [nM]
H-Y[Aib]QGTFTSDFS[Orn][αMeL]LDKK([AEEA-AEEA-γGlu-C18 diacid])AQ[Aib]AFIEYLLE[Aib]GPSSGEPPPSGS-NH2 [Example 166] | 6.96 | 724 | 1500 | 0.118 | 3.82 | 21 | 74.6 | 44.2 |  |  |  |  |  |  | 
H-Y[Aib]QGTFTSDFS[Orn][αMeL]LDKK([AEEA-AEEA-γGlu-C18 diacid])AQ[Aib]AFIEYLLE[Aib]GPSSGEPPPSGT-NH2 [Example 167] | 6.19 | 938 | 1300 | 0.101 | 5.05 | 24.7 | 75.9 | 44.7 |  |  |  |  |  |  | 
H-Y[Aib]QGTFTSDFS[Orn][αMeL]LDKK([AEEA-AEEA-γGlu-C18 diacid])AQ[Aib]AFIEYLLE[Aib]G[4Pal]SSGAPPPSGS-NH2 [Example 183] | 5.03 | 504 | 295 | 0.0759 | 3.83 | 13.7 | 100 | 45.4 |  |  |  |  |  |  | 
H-Y[Aib]QGTFTSDFS[Orn][αMeL]LDKK([AEEA-AEEA-γGlu-C18 diacid])AQ[Aib]AFIEYLLE[dA]GPSSGEPPPSGE-NH2 [Example 117] | 6.4 | 867 | 524 | 0.267 | 4.75 | 29.9 | 45.5 | 51 |  |  |  |  |  |  | 
H-Y[Aib]QGTFTSDFS[Orn][αMeL]LDKK([AEEA-AEEA-γGlu-C18 diacid])AQ[Aib]AFIEYLLE[dA]GPSSGEPPPSGQ-NH2 [Example 157] | 3.04 | 838 | 496 | 0.183 | 4.16 | 22.2 | 60.3 | 53.3 |  |  |  |  |  |  | 
H-Y[Aib]QGTFTSDFS[Orn][αMeL]LDKK([AEEA-AEEA-γGlu-C18 diacid])AQ[Aib]AFIEYLLE[dA]GPSSGHPPPSGS-NH2 [Example 253] | 2.2 | 963 | 355 | 0.115 | 6.62 | 26.6 | 81.6 | 55.2 |  |  |  |  |  |  | 
H-Y[Aib]QGTFTSDFS[Orn][αMeL]LDKK([AEEA-AEEA-γGlu-C18 diacid])AQ[Aib]AFIEYLLE[dA]GPSSGHPPPSG[4Pal]-NH2 [Example 256] | 2.87 | 625 | 235 | 0.176 | 5.71 | 17.4 | 87.8 | 43.5 |  |  |  |  |  |  | 
H-Y[Aib]QGTFTSDFS[Orn][αMeL]LDKK([AEEA-AEEA-γGlu-C20 diacid])AQ[Aib]AFIEYLLE[Aib]GPSSGAPPPGEG-NH2 [Example 70] |  |  |  |  |  |  |  | 61.3 | 2.71 | 717 | 620 | 0.102 | 6.04 | 27.4 | 60
H-Y[Aib]QGTFTSDFS[Orn][αMeL]LDKK([AEEA-AEEA-γGlu-C20 diacid])AQ[Aib]AFIEYLLE[Aib]GPSSGAPPPSEG-NH2 [Example 71] | 3.12 | 2800 | 1010 | 0.105 | 8.74 | 48.1 | 58.8 | 68.6 |  |  |  |  |  |  | 
H-Y[Aib]QGTFTSDFS[Orn][αMeL]LDKK([AEEA-AEEA-γGlu-C20 diacid])AQ[Aib]AFIEYLLE[Aib]GPSSGEPPPGEG-NH2 [Example 69] | 3.25 | 387 | 279 | 0.136 | 4.75 | 25.6 | 71.9 | 58.2 |  |  |  |  |  |  | 
H-Y[Aib]QGTFTSDFS[Orn][αMeL]LDKK([AEEA-γGlu-C18 diacid])AQ[Aib]AFIEWLLEGGHSSGAPPPSGE-NH2 [Example 122] | 3.93 | 548 | 468 | 0.189 | 3.95 | 32.6 | 57.4 | 43.7 |  |  |  |  |  |  | 
